From a melting point compilation (Tetko et al.; mined from patent text by program, amines drawn as free bases though some values may be those of a salt)

With `CC(C)(C)OC(=O)NCCc1ccc([N+](=O)[O-])cc1` the melting point was 94 to 95 °C. Compound `[N-]=[N+]=NCCOc1cc(Cl)cc([N+](=O)[O-])c1N` has a melting point of 113 to 114 °C. For `CN1CCN(c2cccc3c2C[C@H](NC(=O)c2ccc(OS(C)(=O)=O)cc2)CC3)CC1`, the melting point was 199 to 200 °C. Work on `O=C1CCNC(=O)C1C(=O)c1ccc(Cl)cc1[N+](=O)[O-]` (stereo not drawn) yielded a melting point of 161 to 164 °C. `O=c1oc(-c2ccccc2)cc(O)c1C(Sc1ccccc1)C1CCCCC1` (stereo not drawn) showed a melting point of 87 to 90 °C. In the case of `CCCCCCCC(O)C1(C)OC(C)=C(O)C1=O` (stereo not drawn), the melting point is reported as 97 to 98 °C. In the case of `O=C(NC1CCCNC1)c1ccc2[nH]ncc2c1` (stereo not drawn), the melting point is reported as 265 to 266 °C. In the case of `Fc1ccccc1-c1cccc2[nH]c3c(c12)CCN(Cc1ccccc1)CC3`, the melting point is reported as 157 to 159 °C. `O=[N+]([O-])CS(=O)(=O)c1ccccc1Br` showed a melting point of 74 to 76 °C. Compound `CCCN(CCCCN1CCN(c2ccccc2)CC1)C1CCc2nc(N)sc2C1` (stereo not drawn) has a melting point of 156 °C. Work on `Cc1ccc(C)c(Nc2ncc(C(=O)O)c(=O)[nH]2)c1` yielded a melting point of 242 to 244 °C. Compound `CCCCc1ccc(OC)c(-c2csc(NC(=O)c3ccc(C(=O)N4CCC(N5CCC(NC(=O)CC)C5)CC4)cc3)n2)c1` (stereo not drawn) has a melting point of 128 °C. Work on `Cc1nc(N2CCC(Cc3ccc(F)cc3)C2=O)sc1C(=O)NCc1ccc(F)cc1` (stereo not drawn) yielded a melting point of 196 to 197 °C. `C=CCNc1nc(NCCC)nc2c(C)csc12` showed a melting point of 74 to 75 °C. `N#Cc1ncn2c1[C@@H]1CCN1C(=O)c1c-2cccc1C(F)(F)F` gave a melting point of 115 to 119 °C. With `O=c1ccn(CCO)c(C(O)c2cccs2)c1OCc1ccccc1` (stereo not drawn) the melting point was 194 to 196 °C. In the case of `Cc1cc(SCc2ccc(-c3ccc(C(F)(F)F)cc3)cc2)ccc1OCC(=O)O`, the melting point is reported as 140 to 141 °C. In the case of `CN(C)C(=O)c1cc2c(OC[C@@H](O)CN3CCC(c4ccc5ccccc5c4)CC3)cccc2n1C`, the melting point is reported as 146 to 148 °C. With `COc1ccccc1N1CCN(CC(Cc2ccccc2)C(=O)O)CC1` (stereo not drawn) the melting point was 155 to 158 °C. Compound `O=C(Cc1cc2ccccc2[nH]1)Nc1ccc(-n2nc(C(F)(F)F)cc2C(F)(F)F)cc1` has a melting point of 176 to 178 °C. `CN1CCC(c2nn(-c3ccccc3C(F)(F)F)c3ccccc23)CC1` showed a melting point of 110 to 111 °C. In the case of `CCCc1c(OCCCCCCCCOc2ccc(C(=O)c3cccc(C(=O)O)c3)cc2CCC(=O)O)ccc2c1OCCC2=O`, the melting point is reported as 112 to 117 °C. With `COC1(c2cccc3[nH]ccc23)CCNCC1` the melting point was 216 °C. `CCCCC12CCC3=C(CCc4cc(OC)ccc43)C1CCC2O` (stereo not drawn) showed a melting point of 90 to 100 °C. In the case of `CNC(=O)C(=NOC)c1ccccc1COc1ccc2c(c1)OCC2=NOC`, the melting point is reported as 143 to 145 °C. Work on `COC(=O)CC1CC(c2ccc(Cl)nc2)=NO1` (stereo not drawn) yielded a melting point of 94 to 96 °C. With `Oc1ccccc1-c1cc(-c2ccc(F)c(F)c2)cc(-c2ccco2)n1` the melting point was 147 to 148 °C. Work on `CCSC1C(=O)N=C(NC(=O)Nc2cccc(Cl)c2)N1C` (stereo not drawn) yielded a melting point of 102 to 104 °C. `OC(COc1ccc(Cl)cc1Cl)(Cn1cnnc1)Cn1cncn1` (stereo not drawn) showed a melting point of 182 °C. `CC(C)(C)OC(=O)COc1cc(NC(=O)OC(C)(C)C)c([N+](=O)[O-])cc1I` showed a melting point of 103 °C. `Cc1ccc2oc(NC(CC3CCCCC3)c3ccccn3)nc2c1` (stereo not drawn) gave a melting point of 80 to 86 °C. Compound `COc1ccc(-c2nc3sccn3c2/C=C/C(=O)c2cccs2)cc1` has a melting point of 169 to 172 °C. Work on `Cc1c(C)c(NC(=O)CC(C)(C)C)c2c(c1C)C(c1ccc(C(C)C)cc1)CO2` (stereo not drawn) yielded a melting point of 190 to 191 °C. In the case of `CCCn1nc(-c2ccc(OC(=O)CC)cc2)c2cccc(Cl)c21`, the melting point is reported as 66 to 67 °C. `O=C1CC(c2cccc(-n3ccnn3)c2)=Nc2ccc(-c3cc(F)ccc3F)cc2N1` showed a melting point of 231 °C. `CCN1C(=O)Cc2cc(C(C)=O)ccc21` gave a melting point of 141 to 145 °C. For `Cn1c([N+](=O)[O-])cnc1CS(=O)(=O)c1ccccn1`, the melting point was 187 °C. With `CC(C)(CC(=O)Nc1cccc(OCc2ccc3ccc(F)cc3n2)c1)C(=O)O` the melting point was 209 to 210 °C. In the case of `CS(=O)(=O)c1ccc(-n2cc(-c3ccc4ccccc4c3)nc2-c2ccc(Cl)cc2)cc1`, the melting point is reported as 204 to 206 °C. With `CN(CCN1CCOCC1)Cc1ccc(COc2cccc3c2CN(C2CCC(=O)NC2=O)C3=O)cc1` (stereo not drawn) the melting point was 193 to 195 °C. Work on `CS(=O)(=O)Oc1ccc([N+](=O)[O-])c(OCCBr)c1` yielded a melting point of 96 to 98 °C. For `Cc1nn2c(-c3cccc(NC(=O)CC(C)C)c3)ccnc2c1C(=O)c1cccs1`, the melting point was 137 to 139 °C. Work on `COc1cccc(N(C)CCNC(C)=O)c1` yielded a melting point of 69 to 71 °C. `COc1ccc(C(=O)Nc2ccccc2)c(CC2CCCCN2)c1` (stereo not drawn) gave a melting point of 108 to 109 °C. `CC(C)(C)C(NC(=O)c1ccc(Cl)cc1)NC(=NC#N)Nc1ccccc1F` (stereo not drawn) showed a melting point of 208 to 209 °C. With `O=C(O)c1ccc(C(F)(F)F)c([N+](=O)[O-])c1` the melting point was 156 to 158 °C. Compound `CC(C)Oc1ccc(Cl)c2c(=O)c3ccccc3sc12` has a melting point of 91 to 93 °C. Compound `CCN(CC)CCc1cccc(N2C(=O)N(c3ccc(Cl)cc3Cl)Cc3cnc(Nc4ccccc4)nc32)c1` has a melting point of 186 °C. For `O=C(Nc1ccccc1S(=O)(=O)N1CCCCC1)N[C@@H](Cc1ccc(NC(=O)c2c(Cl)cncc2Cl)cc1)C(=O)O`, the melting point was 223 °C. With `Cc1ccc2c(O)c3c(=O)[nH][nH]c(=O)c3nc2c1` the melting point was over 395 °C. `C=C(NC(=O)OC(C)(C)C)C(=O)OCc1ccc([N+](=O)[O-])cc1` showed a melting point of 94 to 95 °C. In the case of `CC(=O)Nc1ccc(S(=O)(=O)c2cc(Br)nc(Br)c2)cc1`, the melting point is reported as 211 °C. Compound `COc1ccc(-c2c(Cl)c(Cn3cnc4ccccc43)nc3sc4c(c23)CCSC4)cc1` has a melting point of 201 to 203 °C. `CCOC(=O)CSc1cccc(-c2nc(=O)c3ccccc3s2)n1` showed a melting point of 124 to 125 °C. Compound `N#Cc1[nH]ccc1-c1ccccc1Cl` has a melting point of 114 to 115 °C. Work on `N#Cc1ccc(N(Cc2ccc(OS(N)(=O)=O)c(Cl)c2)n2cnnc2)cc1-c1ccoc1` yielded a melting point of 154 to 155 °C. Work on `Cc1nc(CS(=O)(=O)c2cccs2)sc1-c1ccnc(Nc2ccc(N3CCOCC3)cc2)n1` yielded a melting point of 187 to 189 °C. Compound `CC(O)Cc1c2ccccc2cc2ccccc12` (stereo not drawn) has a melting point of 105 to 107 °C. Compound `CCCOc1ccc(F)cc1C(=O)O` has a melting point of 76 to 78 °C. With `CN1C=Nc2cc(Cl)c3cc4ccccc4cc3c2C1` the melting point was 236 °C. Work on `O=C(COC(F)(F)F)Nc1ccccc1` yielded a melting point of 64 to 66.5 °C. `Cc1c(Br)c(O)c(Br)c(C)c1-c1c(C)c(Br)c(O)c(Br)c1C` showed a melting point of 242 to 245 °C. `CC1(c2ccc3cc(Br)ccc3c2)OCCO1` gave a melting point of 80 to 82 °C. For `C=CCC(C)(C)C(=O)O[C@H]1C[C@H](O)C=C2C=C[C@H](C)[C@H](CCC3CC(O)CC(=O)O3)[C@H]21` (stereo partly drawn), the melting point was 141 to 142 °C. Compound `Cc1ncc([N+](=O)[O-])n1CCN1C(=O)C2c3cccc4cccc(c34)C2C1=O` (stereo not drawn) has a melting point of 183 to 185 °C. With `CC(CCl)CCCC(C)C1CCC2C3=CC=C4C(C)(C)C(O[Si](C)(C)C(C)(C)C)CCC4(C)C3CCC21C` (stereo not drawn) the melting point was 114 to 116 °C. Compound `CN(C)C=Cc1ccc(-c2csc(-c3ccc(F)cc3)n2)cc1[N+](=O)[O-]` has a melting point of 137 to 138 °C. `O=S1(=O)N=CN(C2CC2)c2cc(Br)cc(F)c21` showed a melting point of 285 to 287 °C. In the case of `O=C(O)C(=O)c1ccc(OCCOc2ccc(Oc3ccccc3)cc2)cc1`, the melting point is reported as 124 to 126 °C. In the case of `O=C(CCCN1CCCCC1)c1ccc2sc3ccc(C(=O)CCCN4CCCCC4)cc3c2c1`, the melting point is reported as 93 to 95 °C. `O=C(O)c1cccc(-n2ccc(-c3ccc(OC(F)(F)F)cc3)n2)c1` showed a melting point of 191 to 194 °C. With `N#CC1(Nc2ccccc2)CCCCC1` the melting point was 67 to 69 °C. For `Cc1ccc(NC(=O)N2CCN(CCc3ccc(-c4cccc(N)n4)cc3)CC2)cc1C`, the melting point was 122 to 125 °C. `CCNC(=O)OC1=C(c2ccccc2)Oc2ccccc2-n2cccc21` showed a melting point of 74 to 75 °C. `CCOC(=O)C(=O)Nc1ccc(S(=O)(=O)NC(=O)C(=O)OCC)c(C(F)(F)F)c1` gave a melting point of 161 to 162 °C. Compound `CCOC(=O)COc1c2c3c(ccnc3c3ccccc13)CCC2` has a melting point of 70 °C. Compound `CC(=O)c1ccc(Br)cn1` has a melting point of 112 °C. With `O=C(COc1ccccc1)NC1C(=O)N2C(C(=O)OCc3ccc([N+](=O)[O-])cc3)=C(O)CCC12` (stereo not drawn) the melting point was 160 to 162 °C. `O=C(Nc1ccc(F)cc1)Oc1ccc2c(c1)N(Cc1ccccc1)CCC2` showed a melting point of 130 °C. `CCCn1c(=O)c2nc(-c3cccc(/C=C/C(=O)O)c3)[nH]c2n(CC2CCCCC2)c1=O` showed a melting point of over 350 °C. Work on `CCOCc1nc2c(N)nc3cc(-c4ccc(Cl)c(Cl)c4)cnc3c2n1CC(C)(C)O` yielded a melting point of 144 to 147 °C. With `CCOC(=O)c1cn(CC)c2cc(C(=O)C=C(C)N(C)C)ccc2c1=O` the melting point was 178 to 180 °C. In the case of `COc1cccc(Cl)c1-c1cc2c(c3c1C(=O)NC3=O)c1cc(O)ccc1n2CCCN1C[C@@H](C)N[C@@H](C)C1`, the melting point is reported as 199 to 202 °C. Work on `CC(=O)NC1C(NC(=O)NCCCl)OC(CO)C(O)C1O` (stereo not drawn) yielded a melting point of 181 to 182 °C. `Cc1sc2ncc(C(O)CCc3ccccc3)n2c1C` (stereo not drawn) showed a melting point of 153 to 154 °C. With `COc1cccc(OC)c1C(=O)Nc1cc(C(C)(C)C)n[nH]1` the melting point was 176 to 178 °C. Compound `O=C1CC(c2cccc(-n3ccnc3)c2)=Nc2cc(N3CCC(O)CC3)c(-c3ccc(F)cc3)cc2N1` has a melting point of 238 to 240 °C. For `CCC(=O)N=c1sc2cccc(C)c2n1N`, the melting point was 175 to 176 °C. Work on `COC(=O)C[C@@H](CC(=O)C=Cc1c(-c2ccc(F)cc2)c(-c2ccccc2)c(C(=O)Nc2ccccc2)n1C(C)C)O[Si](C)(C)C(C)(C)C` yielded a melting point of 62 to 64 °C. With `CC1(C)CN=C(c2cc3cc(F)cc(NS(=O)(=O)c4cccs4)c3[nH]2)S1` the melting point was 175 to 176 °C. In the case of `CCOC(=O)c1nccn1C1Cc2ccc(Cl)cc2C1=O` (stereo not drawn), the melting point is reported as 180 °C. Compound `CCOC(=O)c1cn(-c2ccccn2)cn1` has a melting point of 118 to 119 °C. `CCC(C)c1ccc(-n2c(-c3cc(C)c(OCCO)c(C)c3)nc3cc(F)ccc3c2=O)cc1` (stereo not drawn) showed a melting point of 53.9 to 54.4 °C. In the case of `CCCc1cc(NC(=O)C(=O)OCC)sc1C(=O)OCC`, the melting point is reported as 93 to 94 °C. `N#Cc1cccc2c1CCc1ccsc1-2` showed a melting point of 74.5 to 75 °C. `CS(=O)(=O)c1ccc(NC(=O)c2ccccc2SSc2ccccc2C(=O)Nc2ccc(S(C)(=O)=O)cc2)cc1` showed a melting point of 236 to 238 °C. For `CC(=O)Nc1cc(Cl)ccc1CCOC(C)=O`, the melting point was 129 °C. `Cn1cc(C2=C(c3cccc(NCCO)c3)C(=O)NC2=O)c2ccccc21` showed a melting point of 170 to 171 °C.
